≈ marks a conversion by molar mass, not a printed value. Calls of active or inactive are those of the source. The calls are words filed in the database; no cut-off is given here.
What was measured:
[1] = system: Yamadazyma tenuis; experiment: Antifungal activity against Candida tenuis assessed as growth inhibition at 0.5% after 48 to 72 hr by agar disk diffusion method; type: functional
[2] = system: Escherichia coli; experiment: Antibacterial activity against Escherichia coli B 906 assessed as growth inhibition at 0.1% after 24 hr by agar disk diffusion method; type: functional
[3] = system: Staphylococcus aureus; experiment: Antibacterial activity against Staphylococcus aureus 209-P assessed as growth inhibition after 24 to 72 hr by serial dilution method; type: functional
[4] = system: Aspergillus niger; experiment: Antifungal activity against Aspergillus niger assessed as growth inhibition after 24 to 72 hr by serial dilution method; type: functional
[5] = system: Mycobacterium; experiment: Antibacterial activity against Mycobacterium luteum B-917 assessed as growth inhibition after 24 to 72 hr by serial dilution method; type: functional
[6] = system: Aspergillus niger; experiment: Antifungal activity against Aspergillus niger assessed as growth inhibition at 0.1% after 48 to 72 hr by agar disk diffusion method; type: functional
[7] = system: Staphylococcus aureus; experiment: Antibacterial activity against Staphylococcus aureus 209-P assessed as growth inhibition at 0.1% after 24 hr by agar disk diffusion method; type: functional
[8] = system: Aspergillus niger; experiment: Antifungal activity against Aspergillus niger assessed as growth inhibition at 0.5% after 48 to 72 hr by agar disk diffusion method; type: functional
[9] = system: Mycobacterium; experiment: Antibacterial activity against Mycobacterium luteum B-917 assessed as growth inhibition at 0.1% after 24 hr by agar disk diffusion method; type: functional
[10] = system: Mycobacterium; experiment: Antibacterial activity against Mycobacterium luteum B-917 assessed as growth inhibition at 0.5% after 24 hr by agar disk diffusion method; type: functional
[11] = system: Escherichia coli; experiment: Antibacterial activity against Escherichia coli B 906 assessed as growth inhibition at 0.5% after 24 hr by agar disk diffusion method; type: functional
[12] = system: Staphylococcus aureus; experiment: Antibacterial activity against Staphylococcus aureus 209-P assessed as growth inhibition at 0.5% after 24 hr by agar disk diffusion method; type: functional
[13] = system: Yamadazyma tenuis; experiment: Antifungal activity against Candida tenuis assessed as growth inhibition at 0.1% after 48 to 72 hr by agar disk diffusion method; type: functional
[14] = system: Yamadazyma tenuis; experiment: Antifungal activity against Candida tenuis assessed as growth inhibition after 24 to 72 hr by serial dilution method; type: functional
[15] = system: Escherichia coli; experiment: Antibacterial activity against Escherichia coli B 906 assessed as growth inhibition after 24 to 72 hr by serial dilution method; type: functional, organism-based

CCOC1=C(Sc2nccn2C)C(=O)c2ccccc2C1=O
diameter of the inhibition zone (DIZ) [1]: 0 mm
diameter of the inhibition zone (DIZ) [2]: 0 mm
MIC [3]: inactive
MIC [4]: 15.6 µg/mL (≈ 49.6 µM)
MIC [5]: inactive
diameter of the inhibition zone (DIZ) [6]: 0 mm
diameter of the inhibition zone (DIZ) [7]: 0 mm
diameter of the inhibition zone (DIZ) [8]: 12 mm
diameter of the inhibition zone (DIZ) [9]: 0 mm
diameter of the inhibition zone (DIZ) [10]: 0 mm
diameter of the inhibition zone (DIZ) [11]: 0 mm
diameter of the inhibition zone (DIZ) [12]: 0 mm
diameter of the inhibition zone (DIZ) [13]: 0 mm
MIC [14]: 250 µg/mL (≈ 795 µM)
MIC [15]: inactive

O=C1C(Cl)=C(N2CCC(C(O)(c3ccccc3)c3ccccc3)CC2)C(=O)c2ccccc21
diameter of the inhibition zone (DIZ) [1]: 0 mm
diameter of the inhibition zone (DIZ) [2]: 0 mm
MIC [3]: inactive
MIC [4]: inactive
MIC [5]: inactive
diameter of the inhibition zone (DIZ) [6]: 0 mm
diameter of the inhibition zone (DIZ) [7]: 0 mm
diameter of the inhibition zone (DIZ) [8]: 0 mm
diameter of the inhibition zone (DIZ) [9]: 7.5 mm
diameter of the inhibition zone (DIZ) [10]: 9 mm
diameter of the inhibition zone (DIZ) [11]: 0 mm
diameter of the inhibition zone (DIZ) [12]: 0 mm
diameter of the inhibition zone (DIZ) [13]: 0 mm
MIC [14]: inactive
MIC [15]: inactive

O=C1C(Sc2ccc(O)cc2)=C(Sc2ccc(O)cc2)C(=O)c2ccccc21
diameter of the inhibition zone (DIZ) [1]: 0 mm
diameter of the inhibition zone (DIZ) [2]: 0 mm
MIC [3]: 125 µg/mL (≈ 308 µM)
MIC [4]: 7.8 µg/mL (≈ 19.2 µM)
MIC [5]: 250 µg/mL (≈ 615 µM)
diameter of the inhibition zone (DIZ) [6]: 0 mm
diameter of the inhibition zone (DIZ) [7]: 6 mm
diameter of the inhibition zone (DIZ) [8]: 8 mm
diameter of the inhibition zone (DIZ) [9]: 7 mm
diameter of the inhibition zone (DIZ) [10]: 12.7 mm
diameter of the inhibition zone (DIZ) [11]: 0 mm
diameter of the inhibition zone (DIZ) [12]: 9.7 mm
diameter of the inhibition zone (DIZ) [13]: 0 mm
MIC [14]: 7.8 µg/mL (≈ 19.2 µM)
MIC [15]: inactive

O=C1C(SCc2ccc(Cl)cc2)=C(N2CCC(C(O)(c3ccccc3)c3ccccc3)CC2)C(=O)c2ccccc21
diameter of the inhibition zone (DIZ) [1]: 0 mm
diameter of the inhibition zone (DIZ) [2]: 0 mm
MIC [3]: inactive
MIC [4]: 31.2 µg/mL (≈ 53.8 µM)
MIC [5]: inactive
diameter of the inhibition zone (DIZ) [6]: 0 mm
diameter of the inhibition zone (DIZ) [7]: 0 mm
diameter of the inhibition zone (DIZ) [8]: 0 mm
diameter of the inhibition zone (DIZ) [9]: 0 mm
diameter of the inhibition zone (DIZ) [10]: 0 mm
diameter of the inhibition zone (DIZ) [11]: 0 mm
diameter of the inhibition zone (DIZ) [12]: 0 mm
diameter of the inhibition zone (DIZ) [13]: 0 mm
MIC [14]: 7.8 µg/mL (≈ 13.4 µM)
MIC [15]: inactive

O=C1C(SCc2ccc(Cl)cc2)=C(N2CCSCC2)C(=O)c2ccccc21
diameter of the inhibition zone (DIZ) [1]: 0 mm
diameter of the inhibition zone (DIZ) [2]: 0 mm
MIC [3]: inactive
MIC [4]: 31.2 µg/mL (≈ 75 µM)
MIC [5]: 125 µg/mL (≈ 301 µM)
diameter of the inhibition zone (DIZ) [6]: 0 mm
diameter of the inhibition zone (DIZ) [7]: 0 mm
diameter of the inhibition zone (DIZ) [8]: 0 mm
diameter of the inhibition zone (DIZ) [9]: 7 mm
diameter of the inhibition zone (DIZ) [10]: 13.4 mm
diameter of the inhibition zone (DIZ) [11]: 0 mm
diameter of the inhibition zone (DIZ) [12]: 0 mm
diameter of the inhibition zone (DIZ) [13]: 0 mm
MIC [14]: 7.8 µg/mL (≈ 18.8 µM)
MIC [15]: inactive

NYSTATIN
inhibition zone (IZ) [6]: 20 mm
inhibition zone (IZ) [13]: 19 mm

COC(=O)CCSC1=C(SCCC(=O)OC)C(=O)c2ccccc2C1=O
diameter of the inhibition zone (DIZ) [1]: 15 mm
diameter of the inhibition zone (DIZ) [2]: 0 mm
MIC [3]: 250 µg/mL (≈ 634 µM)
MIC [4]: 15.6 µg/mL (≈ 39.5 µM)
MIC [5]: 7.8 µg/mL (≈ 19.8 µM)
diameter of the inhibition zone (DIZ) [6]: 12.4 mm
diameter of the inhibition zone (DIZ) [7]: 10 mm
diameter of the inhibition zone (DIZ) [8]: 14.7 mm
diameter of the inhibition zone (DIZ) [9]: 15.4 mm
diameter of the inhibition zone (DIZ) [10]: 19.7 mm
diameter of the inhibition zone (DIZ) [11]: 0 mm
diameter of the inhibition zone (DIZ) [12]: 13.4 mm
diameter of the inhibition zone (DIZ) [13]: 10 mm
MIC [14]: 15.6 µg/mL (≈ 39.5 µM)
MIC [15]: inactive

O=C1C(SCc2ccc(Cl)cc2)=C(N2CCN(c3ccccc3F)CC2)C(=O)c2ccccc21
diameter of the inhibition zone (DIZ) [1]: 0 mm
diameter of the inhibition zone (DIZ) [2]: 0 mm
MIC [3]: inactive
MIC [4]: inactive
MIC [5]: inactive
diameter of the inhibition zone (DIZ) [6]: 0 mm
diameter of the inhibition zone (DIZ) [7]: 0 mm
diameter of the inhibition zone (DIZ) [8]: 0 mm
diameter of the inhibition zone (DIZ) [9]: 0 mm
diameter of the inhibition zone (DIZ) [10]: 0 mm
diameter of the inhibition zone (DIZ) [11]: 0 mm
diameter of the inhibition zone (DIZ) [12]: 0 mm
diameter of the inhibition zone (DIZ) [13]: 0 mm
MIC [14]: inactive
MIC [15]: inactive

COC(=O)CCSC1=C(Cl)C(=O)c2ccccc2C1=O
diameter of the inhibition zone (DIZ) [1]: 13 mm
diameter of the inhibition zone (DIZ) [2]: 0 mm
MIC [3]: inactive
MIC [4]: 7.8 µg/mL (≈ 25.1 µM)
MIC [5]: 7.8 µg/mL (≈ 25.1 µM)
diameter of the inhibition zone (DIZ) [6]: 11 mm
diameter of the inhibition zone (DIZ) [7]: 6 mm
diameter of the inhibition zone (DIZ) [8]: 10.4 mm
diameter of the inhibition zone (DIZ) [9]: 9 mm
diameter of the inhibition zone (DIZ) [10]: 18 mm
diameter of the inhibition zone (DIZ) [11]: 0 mm
diameter of the inhibition zone (DIZ) [12]: 8 mm
diameter of the inhibition zone (DIZ) [13]: 12.4 mm
MIC [14]: 1.9 µg/mL (≈ 6.11 µM)
MIC [15]: inactive

O=C1C(SCc2ccc(Cl)cc2)=C(N2CCOCC2)C(=O)c2ccccc21
diameter of the inhibition zone (DIZ) [1]: 0 mm
diameter of the inhibition zone (DIZ) [2]: 0 mm
MIC [3]: inactive
MIC [4]: inactive
MIC [5]: inactive
diameter of the inhibition zone (DIZ) [6]: 0 mm
diameter of the inhibition zone (DIZ) [7]: 0 mm
diameter of the inhibition zone (DIZ) [8]: 0 mm
diameter of the inhibition zone (DIZ) [9]: 7 mm
diameter of the inhibition zone (DIZ) [10]: 8 mm
diameter of the inhibition zone (DIZ) [11]: 0 mm
diameter of the inhibition zone (DIZ) [12]: 0 mm
diameter of the inhibition zone (DIZ) [13]: 0 mm
MIC [14]: inactive
MIC [15]: inactive

O=C1C(SCc2ccc(Cl)cc2)=C(N2CCCC2)C(=O)c2ccccc21
diameter of the inhibition zone (DIZ) [1]: 0 mm
diameter of the inhibition zone (DIZ) [2]: 0 mm
MIC [3]: 250 µg/mL (≈ 651 µM)
MIC [4]: 15.6 µg/mL (≈ 40.6 µM)
MIC [5]: 125 µg/mL (≈ 326 µM)
diameter of the inhibition zone (DIZ) [6]: 0 mm
diameter of the inhibition zone (DIZ) [7]: 0 mm
diameter of the inhibition zone (DIZ) [8]: 0 mm
diameter of the inhibition zone (DIZ) [9]: 8.7 mm
diameter of the inhibition zone (DIZ) [10]: 14.4 mm
diameter of the inhibition zone (DIZ) [11]: 0 mm
diameter of the inhibition zone (DIZ) [12]: 0 mm
diameter of the inhibition zone (DIZ) [13]: 0 mm
MIC [14]: 7.8 µg/mL (≈ 20.3 µM)
MIC [15]: inactive

O=C1C(SCc2ccc(Cl)cc2)=C(N2CCCCC2)C(=O)c2ccccc21
diameter of the inhibition zone (DIZ) [1]: 0 mm
diameter of the inhibition zone (DIZ) [2]: 0 mm
MIC [3]: inactive
MIC [4]: inactive
MIC [5]: 250 µg/mL (≈ 628 µM)
diameter of the inhibition zone (DIZ) [6]: 0 mm
diameter of the inhibition zone (DIZ) [7]: 0 mm
diameter of the inhibition zone (DIZ) [8]: 0 mm
diameter of the inhibition zone (DIZ) [9]: 0 mm
diameter of the inhibition zone (DIZ) [10]: 9 mm
diameter of the inhibition zone (DIZ) [11]: 0 mm
diameter of the inhibition zone (DIZ) [12]: 0 mm
diameter of the inhibition zone (DIZ) [13]: 0 mm
MIC [14]: inactive
MIC [15]: inactive

O=C1C2=C(SCCCCSC3=C(SCCCCS2)C(=O)c2ccccc2C3=O)C(=O)c2ccccc21
diameter of the inhibition zone (DIZ) [1]: 11.4 mm
diameter of the inhibition zone (DIZ) [2]: 0 mm
MIC [3]: 500 µg/mL (≈ 905 µM)
MIC [4]: 15.6 µg/mL (≈ 28.2 µM)
MIC [5]: 1.9 µg/mL (≈ 3.44 µM)
diameter of the inhibition zone (DIZ) [6]: 16.4 mm
diameter of the inhibition zone (DIZ) [7]: 10.4 mm
diameter of the inhibition zone (DIZ) [8]: 19.4 mm
diameter of the inhibition zone (DIZ) [9]: 21.4 mm
diameter of the inhibition zone (DIZ) [10]: 25.4 mm
diameter of the inhibition zone (DIZ) [11]: 0 mm
diameter of the inhibition zone (DIZ) [12]: 12 mm
diameter of the inhibition zone (DIZ) [13]: 9.7 mm
MIC [14]: 3.9 µg/mL (≈ 7.06 µM)
MIC [15]: inactive

O=C1C(SCCOc2ccccc2)=C(SCCOc2ccccc2)C(=O)c2ccccc21
diameter of the inhibition zone (DIZ) [1]: 0 mm
diameter of the inhibition zone (DIZ) [2]: 0 mm
MIC [3]: inactive
MIC [4]: 7.8 µg/mL (≈ 16.9 µM)
MIC [5]: inactive
diameter of the inhibition zone (DIZ) [6]: 0 mm
diameter of the inhibition zone (DIZ) [7]: 0 mm
diameter of the inhibition zone (DIZ) [8]: 0 mm
diameter of the inhibition zone (DIZ) [9]: 0 mm
diameter of the inhibition zone (DIZ) [10]: 8 mm
diameter of the inhibition zone (DIZ) [11]: 0 mm
diameter of the inhibition zone (DIZ) [12]: 0 mm
diameter of the inhibition zone (DIZ) [13]: 0 mm
MIC [14]: 125 µg/mL (≈ 270 µM)
MIC [15]: inactive

CN[C@H](CC(C)C)C(=O)N[C@H]1C(=O)N[C@@H](CC(N)=O)C(=O)N[C@H]2C(=O)N[C@H]3C(=O)N[C@H](C(=O)N[C@H](C(=O)O)c4cc(O)cc(O)c4-c4cc3ccc4O)[C@H](O)c3ccc(c(Cl)c3)Oc3cc2cc(c3O[C@@H]2O[C@H](CO)[C@@H](O)[C@H](O)[C@H]2O[C@H]2C[C@](C)(N)[C@H](O)[C@H](C)O2)Oc2ccc(cc2Cl)[C@H]1O [VANCOMYCIN]
diameter of the inhibition zone (DIZ) [2]: 14 mm
diameter of the inhibition zone (DIZ) [7]: 15 mm
diameter of the inhibition zone (DIZ) [9]: 18 mm

From ChEMBL document CHEMBL3045787, “Synthesis of novel 1,4-naphthoquinone derivatives: antibacterial and antifungal agents” (2013)
